From patent US9738634B2, “Heterocyclic amide compound and herbicide” (SYNGENTA PARTICIPATIONS AG, priority 2013, dated 2017)

Tests used:
Format in all cases: in vivo
fig-leafed goosefoot [1] = test: Test Example 3: weedkilling efficacy through soil treatment; M: fig-leafed goosefoot; conditions: treatment dosage 315 g/ha
How it was run: (§1)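 Crop and weed responses were judged three weeks after a uniform surface spray of the water-diluted emulsion at the given g/ha rate. Seeds sat beneath about 1.5 cm of sterilized diluvial soil, and boxes stood in a greenhouse at 25 to 30° C.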

oval-leafed pondweed [2] = test: Test Example 1: weedkilling efficacy, preemergent weed treatment in the submerged state; C: oval-leafed pondweed; conditions: treatment dosage 252 g/ha
How it was run: (§2)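 Visual scores against set criteria were taken 3 weeks after treatment. Compounds, as diluted emulsions at specified g/ha, went onto the water surface of 4 cm-flooded alluvial soil pots on the day weeds were sown and 2.5-leaf rice was transplanted; greenhouse held 25–30 °C.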

green foxtail [3] = test: Test Example 4: weedkilling efficacy by foliar treatment; E: green foxtail; conditions: treatment dosage 315 g/ha
How it was run: (§3)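 Seeds are spot-sown into sterilized diluvial soil and covered with about 1.5 cm of soil. After 14 days' greenhouse growth at 25 to 30° C, plants are sprayed on stems and leaves with diluted emulsion at the stated g/ha rate, then scored at 3 weeks.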

black-grass [4] = test: Test Example 3: weedkilling efficacy through soil treatment; H: black-grass; conditions: treatment dosage 315 g/ha
How it was run: as §1

Indian mallow [5] = test: Test Example 3: weedkilling efficacy through soil treatment; K: Indian mallow; conditions: treatment dosage 315 g/ha
How it was run: as §1

Italian ryegrass [6] = test: Test Example 3: weedkilling efficacy through soil treatment; I: Italian ryegrass; conditions: treatment dosage 315 g/ha
How it was run: as §1

Indian mallow [7] = test: Test Example 4: weedkilling efficacy by foliar treatment; K: Indian mallow; conditions: treatment dosage 315 g/ha
How it was run: as §3

wild oat [8] = test: Test Example 4: weedkilling efficacy by foliar treatment; G: wild oat; conditions: treatment dosage 315 g/ha
How it was run: as §3

Italian ryegrass [9] = test: Test Example 4: weedkilling efficacy by foliar treatment; I: Italian ryegrass; conditions: treatment dosage 315 g/ha
How it was run: as §3

transplanted rice = test: Test Example 1: preemergent weed treatment in the submerged state, effect on crop; a: transplanted rice; conditions: treatment dosage 252 g/ha
How it was run: as §2

chickweed [10] = test: Test Example 3: weedkilling efficacy through soil treatment; N: chickweed; conditions: treatment dosage 315 g/ha
How it was run: as §1

corn [11] = test: Test Example 3: soil treatment, effect on crop; c: corn; conditions: treatment dosage 315 g/ha
How it was run: as §1

bulrush [12] = test: Test Example 2: weedkilling efficacy, growth period weed treatment in the submerged state; B: bulrush; conditions: treatment dosage 252 g/ha
How it was run: (§4)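 Barnyard grass, bulrush and oval-leafed pondweed sown in alluvial soil under 4 cm flooding, greenhouse 25 to 30° C. At 1-2 leaf stage, water-diluted emulsion applied to the water surface at stated g/ha dosages; effects scored 3 weeks later.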

corn [13] = test: Test Example 4: foliar treatment, effect on crop; c: corn; conditions: treatment dosage 315 g/ha
How it was run: as §3

catchweed [14] = test: Test Example 4: weedkilling efficacy by foliar treatment; O: catchweed; conditions: treatment dosage 315 g/ha
How it was run: as §3

wheat [15] = test: Test Example 3: soil treatment, effect on crop; e: wheat; conditions: treatment dosage 315 g/ha
How it was run: as §1

wild oat [16] = test: Test Example 3: weedkilling efficacy through soil treatment; G: wild oat; conditions: treatment dosage 315 g/ha
How it was run: as §1

bulrush [17] = test: Test Example 1: weedkilling efficacy, preemergent weed treatment in the submerged state; B: bulrush; conditions: treatment dosage 252 g/ha
How it was run: as §2

soybean [18] = test: Test Example 3: soil treatment, effect on crop; d: soybean; conditions: treatment dosage 315 g/ha
How it was run: as §1

black-grass [19] = test: Test Example 4: weedkilling efficacy by foliar treatment; H: black-grass; conditions: treatment dosage 315 g/ha
How it was run: as §3

directly sown rice [20] = test: Test Example 4: foliar treatment, effect on crop; b: directly sown rice; conditions: treatment dosage 315 g/ha
How it was run: as §3

birds-eye speedwell [21] = test: Test Example 4: weedkilling efficacy by foliar treatment; p: birds-eye speedwell; conditions: treatment dosage 315 g/ha
How it was run: as §3

beet [22] = test: Test Example 3: soil treatment, effect on crop; f: beet; conditions: treatment dosage 315 g/ha
How it was run: as §1

barnyard grass [23] = test: Test Example 2: weedkilling efficacy, growth period weed treatment in the submerged state; A: barnyard grass; conditions: treatment dosage 252 g/ha
How it was run: as §4

wheat [24] = test: Test Example 4: foliar treatment, effect on crop; e: wheat; conditions: treatment dosage 315 g/ha
How it was run: as §3

crabgrass [25] = test: Test Example 4: weedkilling efficacy by foliar treatment; D: crabgrass; conditions: treatment dosage 315 g/ha
How it was run: as §3

soybean [26] = test: Test Example 4: foliar treatment, effect on crop; d: soybean; conditions: treatment dosage 315 g/ha
How it was run: as §3

chickweed [27] = test: Test Example 4: weedkilling efficacy by foliar treatment; N: chickweed; conditions: treatment dosage 315 g/ha
How it was run: as §3

redroot pigweed [28] = test: Test Example 4: weedkilling efficacy by foliar treatment; L: redroot pigweed; conditions: treatment dosage 315 g/ha
How it was run: as §3

oval-leafed pondweed [29] = test: Test Example 2: weedkilling efficacy, growth period weed treatment in the submerged state; C: oval-leafed pondweed; conditions: treatment dosage 252 g/ha
How it was run: as §4

green foxtail [30] = test: Test Example 3: weedkilling efficacy through soil treatment; E: green foxtail; conditions: treatment dosage 315 g/ha
How it was run: as §1

crabgrass [31] = test: Test Example 3: weedkilling efficacy through soil treatment; D: crabgrass; conditions: treatment dosage 315 g/ha
How it was run: as §1

redroot pigweed [32] = test: Test Example 3: weedkilling efficacy through soil treatment; L: redroot pigweed; conditions: treatment dosage 315 g/ha
How it was run: as §1

barnyard grass [33] = test: Test Example 1: weedkilling efficacy, preemergent weed treatment in the submerged state; A: barnyard grass; conditions: treatment dosage 252 g/ha
How it was run: as §2

fig-leafed goosefoot [34] = test: Test Example 4: weedkilling efficacy by foliar treatment; M: fig-leafed goosefoot; conditions: treatment dosage 315 g/ha
How it was run: as §3

directly sown rice [35] = test: Test Example 3: soil treatment, effect on crop; b: directly sown rice; conditions: treatment dosage 315 g/ha
How it was run: as §1

beet [36] = test: Test Example 4: foliar treatment, effect on crop; f: beet; conditions: treatment dosage 315 g/ha
How it was run: as §3

birds-eye speedwell [37] = test: Test Example 3: weedkilling efficacy through soil treatment; p: birds-eye speedwell; conditions: treatment dosage 315 g/ha
How it was run: as §1

catchweed [38] = test: Test Example 3: weedkilling efficacy through soil treatment; O: catchweed; conditions: treatment dosage 315 g/ha
How it was run: as §1

## CC1=C(c2ccccc2)C(=O)N(C(C)(C)C(=O)Nc2cncc(F)c2)CO1 [B-3-01]
fig-leafed goosefoot [1]
  M (fig-leafed goosefoot) weedkilling efficacy grade: 5 (weed kill ratio 90% or more, (practically complete withering))
oval-leafed pondweed [2]
  C (oval-leafed pondweed) weedkilling efficacy grade: 5 (weed kill ratio 90% or more, (practically complete withering))
Green foxtail [3]
  E (green foxtail) weedkilling efficacy grade: 5 (weed kill ratio 90% or more, (practically complete withering))
black-grass [4]
  H (black-grass) weedkilling efficacy grade: 5 (weed kill ratio 90% or more, (practically complete withering))
Indian mallow [5]
  K (Indian mallow) weedkilling efficacy grade: 2 (weed kill ratio 20% or more, less than 40%)
Italian ryegrass [6]
  I (Italian ryegrass) weedkilling efficacy grade: 5 (weed kill ratio 90% or more, (practically complete withering))
Indian mallow [7]
  K (Indian mallow) weedkilling efficacy grade: 3 (weed kill ratio 40% or more, less than 70%)
Wild oat [8]
  G (wild oat) weedkilling efficacy grade: 5 (weed kill ratio 90% or more, (practically complete withering))
Italian ryegrass [9]
  I (Italian ryegrass) weedkilling efficacy grade: 5 (weed kill ratio 90% or more, (practically complete withering))
Transplanted rice
  a (transplanted rice) effect on crop grade: 0 (weed kill ratio 5% or less (practically no effect))
Chickweed [10]
  N (chickweed) weedkilling efficacy grade: 4 (weed kill ratio 70% or more, less than 90%)
Corn [11]
  c (corn) effect on crop grade: 3 (weed kill ratio 40% or more, less than 70%)
Bulrush [12]
  B (bulrush) weedkilling efficacy grade: 5 (weed kill ratio 90% or more, (practically complete withering))
Corn [13]
  c (corn) effect on crop grade: 4 (weed kill ratio 70% or more, less than 90%)
Catchweed [14]
  O (catchweed) weedkilling efficacy grade: 4 (weed kill ratio 70% or more, less than 90%)
Wheat [15]
  e (wheat) effect on crop grade: 5 (weed kill ratio 90% or more, (practically complete withering))
Wild oat [16]
  G (wild oat) weedkilling efficacy grade: 5 (weed kill ratio 90% or more, (practically complete withering))
Bulrush [17]
  B (bulrush) weedkilling efficacy grade: 5 (weed kill ratio 90% or more, (practically complete withering))
Soybean [18]
  d (soybean) effect on crop grade: 0 (weed kill ratio 5% or less (practically no effect))
black-grass [19]
  H (black-grass) weedkilling efficacy grade: 5 (weed kill ratio 90% or more, (practically complete withering))
Directly sown rice [20]
  b (directly sown rice) effect on crop grade: 5 (weed kill ratio 90% or more, (practically complete withering))
birds-eye speedwell [21]
  P (birds-eye speedwell) weedkilling efficacy grade: 3 (weed kill ratio 40% or more, less than 70%)
Beet [22]
  f (beet) effect on crop grade: 4 (weed kill ratio 70% or more, less than 90%)
Barnyard grass [23]
  A (barnyard grass) weedkilling efficacy grade: 3 (weed kill ratio 40% or more, less than 70%)
Wheat [24]
  e (wheat) effect on crop grade: 1 (weed kill ratio 5% or more, less than 20%)
Crabgrass [25]
  D (crabgrass) weedkilling efficacy grade: 5 (weed kill ratio 90% or more, (practically complete withering))
Soybean [26]
  d (soybean) effect on crop grade: 4 (weed kill ratio 70% or more, less than 90%)
Chickweed [27]
  N (chickweed) weedkilling efficacy grade: 2 (weed kill ratio 20% or more, less than 40%)
Redroot pigweed [28]
  L (redroot pigweed) weedkilling efficacy grade: 3 (weed kill ratio 40% or more, less than 70%)
oval-leafed pondweed [29]
  C (oval-leafed pondweed) weedkilling efficacy grade: 4 (weed kill ratio 70% or more, less than 90%)
Green foxtail [30]
  E (green foxtail) weedkilling efficacy grade: 5 (weed kill ratio 90% or more, (practically complete withering))
Crabgrass [31]
  D (crabgrass) weedkilling efficacy grade: 5 (weed kill ratio 90% or more, (practically complete withering))
Redroot pigweed [32]
  L (redroot pigweed) weedkilling efficacy grade: 4 (weed kill ratio 70% or more, less than 90%)
Barnyard grass [33]
  A (barnyard grass) weedkilling efficacy grade: 5 (weed kill ratio 90% or more, (practically complete withering))

## CC1=C(c2ccccc2)C(=O)N(C(C)(C)C(=O)Nc2cc(Cl)cc(Br)n2)CO1 [B-2-36]
fig-leafed goosefoot [1]
  M (fig-leafed goosefoot) weedkilling efficacy grade: 3 (weed kill ratio 40% or more, less than 70%)
oval-leafed pondweed [2]
  C (oval-leafed pondweed) weedkilling efficacy grade: 5 (weed kill ratio 90% or more, (practically complete withering))
Green foxtail [3]
  E (green foxtail) weedkilling efficacy grade: 5 (weed kill ratio 90% or more, (practically complete withering))
black-grass [4]
  H (black-grass) weedkilling efficacy grade: 5 (weed kill ratio 90% or more, (practically complete withering))
Indian mallow [5]
  K (Indian mallow) weedkilling efficacy grade: 4 (weed kill ratio 70% or more, less than 90%)
Italian ryegrass [6]
  I (Italian ryegrass) weedkilling efficacy grade: 4 (weed kill ratio 70% or more, less than 90%)
Indian mallow [7]
  K (Indian mallow) weedkilling efficacy grade: 4 (weed kill ratio 70% or more, less than 90%)
Wild oat [8]
  G (wild oat) weedkilling efficacy grade: 1 (weed kill ratio 5% or more, less than 20%)
Italian ryegrass [9]
  I (Italian ryegrass) weedkilling efficacy grade: 0 (weed kill ratio 5% or less (practically no effect))
Transplanted rice
  a (transplanted rice) effect on crop grade: 0 (weed kill ratio 5% or less (practically no effect))
Chickweed [10]
  N (chickweed) weedkilling efficacy grade: 4 (weed kill ratio 70% or more, less than 90%)
Corn [11]
  c (corn) effect on crop grade: 1 (weed kill ratio 5% or more, less than 20%)
Bulrush [12]
  B (bulrush) weedkilling efficacy grade: 5 (weed kill ratio 90% or more, (practically complete withering))
Corn [13]
  c (corn) effect on crop grade: 3 (weed kill ratio 40% or more, less than 70%)
Catchweed [14]
  O (catchweed) weedkilling efficacy grade: 4 (weed kill ratio 70% or more, less than 90%)
Wheat [15]
  e (wheat) effect on crop grade: 0 (weed kill ratio 5% or less (practically no effect))
Wild oat [16]
  G (wild oat) weedkilling efficacy grade: 1 (weed kill ratio 5% or more, less than 20%)
Bulrush [17]
  B (bulrush) weedkilling efficacy grade: 5 (weed kill ratio 90% or more, (practically complete withering))
Soybean [18]
  d (soybean) effect on crop grade: 1 (weed kill ratio 5% or more, less than 20%)
fig-leafed goosefoot [34]
  M (fig-leafed goosefoot) weedkilling efficacy grade: 4 (weed kill ratio 70% or more, less than 90%)
black-grass [19]
  H (black-grass) weedkilling efficacy grade: 3 (weed kill ratio 40% or more, less than 70%)
Directly sown rice [35]
  b (directly sown rice) effect on crop grade: 4 (weed kill ratio 70% or more, less than 90%)
Beet [36]
  f (beet) effect on crop grade: 3 (weed kill ratio 40% or more, less than 70%)
Directly sown rice [20]
  b (directly sown rice) effect on crop grade: 4 (weed kill ratio 70% or more, less than 90%)
birds-eye speedwell [37]
  P (birds-eye speedwell) weedkilling efficacy grade: 4 (weed kill ratio 70% or more, less than 90%)
Beet [22]
  f (beet) effect on crop grade: 3 (weed kill ratio 40% or more, less than 70%)
Barnyard grass [23]
  A (barnyard grass) weedkilling efficacy grade: 5 (weed kill ratio 90% or more, (practically complete withering))
Wheat [24]
  e (wheat) effect on crop grade: 0 (weed kill ratio 5% or less (practically no effect))
Crabgrass [25]
  D (crabgrass) weedkilling efficacy grade: 5 (weed kill ratio 90% or more, (practically complete withering))
Soybean [26]
  d (soybean) effect on crop grade: 3 (weed kill ratio 40% or more, less than 70%)
Chickweed [27]
  N (chickweed) weedkilling efficacy grade: 4 (weed kill ratio 70% or more, less than 90%)
Redroot pigweed [28]
  L (redroot pigweed) weedkilling efficacy grade: 3 (weed kill ratio 40% or more, less than 70%)
oval-leafed pondweed [29]
  C (oval-leafed pondweed) weedkilling efficacy grade: 5 (weed kill ratio 90% or more, (practically complete withering))
Green foxtail [30]
  E (green foxtail) weedkilling efficacy grade: 5 (weed kill ratio 90% or more, (practically complete withering))
Crabgrass [31]
  D (crabgrass) weedkilling efficacy grade: 5 (weed kill ratio 90% or more, (practically complete withering))
Redroot pigweed [32]
  L (redroot pigweed) weedkilling efficacy grade: 4 (weed kill ratio 70% or more, less than 90%)
Barnyard grass [33]
  A (barnyard grass) weedkilling efficacy grade: 5 (weed kill ratio 90% or more, (practically complete withering))
Catchweed [38]
  O (catchweed) weedkilling efficacy grade: 5 (weed kill ratio 90% or more, (practically complete withering))
